From ChEMBL document CHEMBL1148617, “Design, synthesis, and structure-activity relationships of 1-,3-,8-, and 9-substituted-9-deazaxanthines at the human A2B adenosine receptor” (J Med Chem, 2006)

Experiments:
[1] = biological target: T1, Adenosine receptor A2b (Homo sapiens) (UniProt P29275); experiment: Displacement of [3H]DPCPX from recombinant human adenosine A2B receptor expressed in HEK293 cells at 0.01 uM
T1 sequence (whole entry): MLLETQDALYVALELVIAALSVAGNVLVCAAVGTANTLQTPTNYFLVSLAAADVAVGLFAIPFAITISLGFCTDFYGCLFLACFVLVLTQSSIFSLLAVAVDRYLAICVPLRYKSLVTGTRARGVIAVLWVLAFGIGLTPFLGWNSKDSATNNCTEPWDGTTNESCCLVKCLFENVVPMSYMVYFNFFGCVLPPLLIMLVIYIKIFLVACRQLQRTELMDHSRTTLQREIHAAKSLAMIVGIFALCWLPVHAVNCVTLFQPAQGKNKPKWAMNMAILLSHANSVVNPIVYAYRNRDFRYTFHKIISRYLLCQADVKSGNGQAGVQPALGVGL

[2] = biological target: T2, Adenosine receptor A2b (Homo sapiens, UniProt P29275)
T2 sequence (P29275 whole entry): T1 sequence (whole entry)
Description: Binding affinity to recombinant human adenosine A2B receptor

[3] = biological target: T1, Adenosine receptor A2b (Homo sapiens); experiment: Displacement of [3H]DPCPX from recombinant human adenosine A2B receptor expressed in HEK293 cells at 0.1 uM; format: cell-based
[4] = biological target: T3, Adenosine receptor A2a (Homo sapiens, UniProt P29274)
T3 sequence (P29274 whole entry): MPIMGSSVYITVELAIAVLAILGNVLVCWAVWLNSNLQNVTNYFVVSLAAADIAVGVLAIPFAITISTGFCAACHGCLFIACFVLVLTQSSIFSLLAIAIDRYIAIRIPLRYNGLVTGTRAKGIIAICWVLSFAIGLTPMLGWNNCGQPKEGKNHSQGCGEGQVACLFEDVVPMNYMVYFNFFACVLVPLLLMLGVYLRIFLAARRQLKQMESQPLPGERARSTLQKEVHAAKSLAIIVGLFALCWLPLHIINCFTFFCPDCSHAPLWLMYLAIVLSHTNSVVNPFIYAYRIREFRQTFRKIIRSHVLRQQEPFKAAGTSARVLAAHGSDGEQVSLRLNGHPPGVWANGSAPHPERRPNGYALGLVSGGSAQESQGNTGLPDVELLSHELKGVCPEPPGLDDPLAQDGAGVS
Description: Binding affinity to recombinant human adenosine A2A receptor

[5] = biological target: T3, Adenosine receptor A2a; experiment: Displacement of [3H]ZM-241385 from recombinant human adenosine A2A receptor expressed in HeLa cells at 0.1 uM

An inhibition [1] of 78%, a Ki [2] of 3.16 nM and an inhibition [3] of 95% were found for `CCCn1c(=O)c2[nH]c(-c3ccc(OCC(=O)NCc4ccccc4)cc3)cc2n(CCC)c1=O` in this work. The Ki [4] was 89.1 nM and the inhibition [5] was 38%.
An inhibition [1] of 10%, a Ki [2] of 27.5 nM and an inhibition [3] of 69% were found for `CCCn1c(=O)c2[nH]c(-c3ccc(OCC(=O)Nc4ccc(F)cc4)cc3)c(Cl)c2n(CCC)c1=O` in this work. It also gave a Ki [4] of 40.7 nM and an inhibition [5] of 54%.
An inhibition [1] of 36%, a Ki [2] of 15.1 nM and an inhibition [3] of 81% were found for `Cn1c(=O)c2[nH]c(-c3ccc(OCC(=O)Nc4nncs4)cc3)cc2n(C)c1=O` in this work. The Ki [4] was 16.2 nM and the inhibition [5] was 43%.
An inhibition [1] of 30%, a Ki [2] of 11 nM and an inhibition [3] of 80% were found for `CCCn1c(=O)c2[nH]c(-c3ccc(OCC(=O)Nc4cc(OC)nc(OC)n4)cc3)cc2n(CCC)c1=O` in this work. For the same compound, the Ki [4] was 89.1 nM and the inhibition [5] was 41%.
An inhibition [1] of 5%, a Ki [2] of 141 nM and an inhibition [3] of 30% were found for `CCCn1c(=O)c2[nH]c(-c3ccc(OCC(=O)Nc4ccccc4F)cc3)c(Cl)c2n(CCC)c1=O` in this work. It also gave a Ki [4] of 724 nM and an inhibition [5] of 2%.
An inhibition [1] of 50%, a Ki [2] of 8.91 nM and an inhibition [3] of 97% were found for `CCCn1c(=O)c2[nH]c(-c3ccc(OC(C)(C)C(=O)Nc4ccc(F)cc4)cc3)cc2n(CCC)c1=O` in this work. The Ki [4] was 17 nM and the inhibition [5] was 32%.
An inhibition [1] of 10%, a Ki [2] of 55 nM and an inhibition [3] of 67% were found for `CN(Cc1ccccc1)C(=O)COc1ccc(-c2cc3c([nH]2)c(=O)n(C)c(=O)n3C)cc1` in this work. The Ki [4] was 1020 nM and the inhibition [5] was 14%.
An inhibition [1] of 33%, a Ki [2] of 21.4 nM and an inhibition [3] of 80% were found for `CCCn1c(=O)n(C)c(=O)c2[nH]c(-c3ccc(OCC(=O)Nc4ccccc4)cc3)cc21` in this work. For the same compound, the Ki [4] was 195 nM and the inhibition [5] was 40%.
An inhibition [1] of 15%, a Ki [2] of 27.5 nM and an inhibition [3] of 70% were found for `CCCn1c(=O)c2[nH]c(-c3ccc(OCC(=O)Nc4ccc(OC)cc4)cc3)c(Cl)c2n(CCC)c1=O` in this work. The Ki [4] was 44.7 nM and the inhibition [5] was 45%.
An inhibition [1] of 22%, a Ki [2] of 12 nM and an inhibition [3] of 80% were found for `CCCn1c(=O)c2[nH]c(-c3ccc(OCC(=O)Nc4ccc(OC)cc4)cc3)cc2n(CCC)c1=O` in this work. For the same compound, the Ki [4] was 20 nM and the inhibition [5] was 52%.
An inhibition [1] of 24%, a Ki [2] of 34.7 nM and an inhibition [3] of 79% were found for `CCCn1c(=O)c2[nH]c(-c3ccc(OCC(=O)Nc4ccc(O)cc4)cc3)cc2n(CCC)c1=O` in this work. It also gave a Ki [4] of 56.2 nM and an inhibition [5] of 51%.
An inhibition [1] of 8%, a Ki [2] of 263 nM and an inhibition [3] of 16% were found for `COCCCn1c(=O)n(C)c(=O)c2[nH]c(-c3ccc(OCC(=O)NC4CCCC4)cc3)cc21` in this work. For the same compound, the Ki [4] was 427 nM and the inhibition [5] was 0%.
An inhibition [1] of 14%, a Ki [2] of 33.9 nM and an inhibition [3] of 87% were found for `CCCn1c(=O)c2[nH]c(-c3ccc(OCC(=O)Nc4ccc(CC(=O)O)cc4)cc3)cc2n(CCC)c1=O` in this work. The Ki [4] was 224 nM and the inhibition [5] was 28%.
An inhibition [1] of 11%, a Ki [2] of 34.7 nM and an inhibition [3] of 67% were found for `CCCn1c(=O)c2[nH]c(-c3ccc(OCC(=O)Nc4ccc(C5=NC(C)(C)CO5)cc4)cc3)cc2n(CCC)c1=O` in this work. For the same compound, the Ki [4] was 91.2 nM and the inhibition [5] was 25%.
An inhibition [1] of 8%, a Ki [2] of 52.5 nM and an inhibition [3] of 43% were found for `CCCn1c(=O)c2[nH]c(-c3ccc(OCC(=O)Nc4ccc(C(C)=O)cc4)cc3)c(Cl)c2n(CCC)c1=O` in this work. The Ki [4] was 85.1 nM and the inhibition [5] was 21%.
An inhibition [1] of 21%, a Ki [2] of 28.2 nM and an inhibition [3] of 76% were found for `CCCn1c(=O)c2[nH]c(-c3ccc(OCC(=O)NCc4ccncc4)cc3)cc2n(CCC)c1=O` in this work. For the same compound, the Ki [4] was 302 nM and the inhibition [5] was 18%.
An inhibition [1] of 30%, a Ki [2] of 22.4 nM and an inhibition [3] of 74% were found for `Cn1c(=O)c2[nH]c(-c3ccc(OCC(=O)NC4CCc5ccccc54)cc3)cc2n(C)c1=O` (stereo not given) in this work. For the same compound, the Ki [4] was 214 nM and the inhibition [5] was 20%.
An inhibition [1] of 6%, a Ki [2] of 60.3 nM and an inhibition [3] of 46% were found for `CCCn1c(=O)c2[nH]c(-c3ccc(OCC(=O)Nc4cccc(F)c4)cc3)c(Cl)c2n(CCC)c1=O` in this work. The Ki [4] was 245 nM and the inhibition [5] was 20%.
An inhibition [1] of 37%, a Ki [2] of 20.9 nM and an inhibition [3] of 82% were found for `CCCn1c(=O)c2[nH]c(-c3ccc(OCC(=O)Nc4ncccc4O)cc3)cc2n(CCC)c1=O` in this work. It also gave a Ki [4] of 324 nM and an inhibition [5] of 32%.
An inhibition [1] of 15%, a Ki [2] of 38.9 nM and an inhibition [3] of 78% were found for `COc1cc(-c2cc3c([nH]2)c(=O)n(C)c(=O)n3C)ccc1OCC(=O)Nc1ccc(Br)cc1` in this work. It also gave a Ki [4] of 81.3 nM and an inhibition [5] of 32%.
An inhibition [1] of 7%, a Ki [2] of 186 nM and an inhibition [3] of 34% were found for `Cn1c(=O)c2[nH]c(-c3ccc(OCC(=O)Nc4ccc(CCN)cc4)cc3)cc2n(C)c1=O` in this work. It also gave a Ki [4] of 166 nM and an inhibition [5] of 38%.
An inhibition [1] of 10%, a Ki [2] of 148 nM and an inhibition [3] of 27% were found for `COc1cc(-c2cc3c([nH]2)c(=O)n(C)c(=O)n3C)ccc1OCC(=O)Nc1ccccc1` in this work. For the same compound, the Ki [4] was 302 nM and the inhibition [5] was 20%.
An inhibition [1] of 34%, a Ki [2] of 11.2 nM and an inhibition [3] of 86% were found for `CCCn1c(=O)c2[nH]c(-c3ccc(OCC(=O)Nc4ccc(CC#N)cc4)cc3)cc2n(CCC)c1=O` in this work. It also gave a Ki [4] of 39.8 nM and an inhibition [5] of 46%.
An inhibition [1] of 21%, a Ki [2] of 21.9 nM and an inhibition [3] of 66% were found for `CCCn1c(=O)c2[nH]c(-c3ccc(OCC(=O)c4c(NC(=O)O)[nH]c(=O)n(C)c4=O)cc3)cc2n(CCC)c1=O` in this work. The Ki [4] was 15.8 nM and the inhibition [5] was 76%.
An inhibition [1] of 52%, a Ki [2] of 6.92 nM and an inhibition [3] of 82% were found for `Cn1c(=O)c2[nH]c(-c3ccc(OCC(=O)Nc4ccc([N+](=O)[O-])cc4)cc3)cc2n(C)c1=O` in this work. It also gave a Ki [4] of 81.3 nM and an inhibition [5] of 30%.
An inhibition [1] of 15%, a Ki [2] of 51.3 nM and an inhibition [3] of 61% were found for `COc1cccc(CNC(=O)COc2ccc(-c3cc4c([nH]3)c(=O)n(C)c(=O)n4C)cc2)c1` in this work. It also gave a Ki [4] of 331 nM and an inhibition [5] of 11%.
An inhibition [1] of 10%, a Ki [2] of 17.4 nM and an inhibition [3] of 85% were found for `CCCn1c(=O)c2[nH]c(-c3ccc(OCC(=O)Nc4ccc(S(=O)(=O)c5ccccc5)cc4)cc3)cc2n(CCC)c1=O` in this work. For the same compound, the Ki [4] was 282 nM and the inhibition [5] was 27%.
An inhibition [1] of 38%, a Ki [2] of 18.6 nM and an inhibition [3] of 78% were found for `CCCn1c(=O)c2[nH]c(-c3ccc(OCC(=O)Nc4ccc(C)cc4)cc3)c(Cl)c2n(CCC)c1=O` in this work. For the same compound, the Ki [4] was 32.4 nM and the inhibition [5] was 50%.
An inhibition [1] of 53%, a Ki [2] of 6.92 nM and an inhibition [3] of 91% were found for `CCCn1c(=O)c2[nH]c(-c3ccc(OCC(=O)Nc4ccc(OC(F)(F)F)cc4)cc3)cc2n(CCC)c1=O` in this work. It also gave a Ki [4] of 107 nM and an inhibition [5] of 31%.
An inhibition [1] of 16%, a Ki [2] of 25.1 nM and an inhibition [3] of 78% were found for `CCCn1c(=O)c2[nH]c(-c3ccc(OCC(=O)Nc4ccc(C(N)=O)cc4)cc3)cc2n(CCC)c1=O` in this work. It also gave a Ki [4] of 24 nM and an inhibition [5] of 43%.
An inhibition [1] of 6%, a Ki [2] of 56.2 nM and an inhibition [3] of 57% were found for `CCCn1c(=O)c2[nH]c(-c3ccc(OCC(=O)Nc4ccc(C(=O)OCC)cc4)cc3)cc2n(CCC)c1=O` in this work. It also gave a Ki [4] of 100 nM and an inhibition [5] of 30%.
An inhibition [1] of 50%, a Ki [2] of 5.13 nM and an inhibition [3] of 92% were found for `CCCn1c(=O)c2[nH]c(-c3ccc(OC(C)C(=O)Nc4ccccc4)cc3)cc2n(CCC)c1=O` (stereo not given) in this work. For the same compound, the Ki [4] was 105 nM and the inhibition [5] was 42%.
